In experiment [1] the test system is HFF. Kind of experiment: Antiinflammatory activity assessed as inhibition of IL1 stimulated IL6 production in HFF cells by transrepression assay. Type of experiment: functional, cell-based. Particulars: Homo sapiens.
Experiment [2] relates to HFF. Description: Antiinflammatory activity assessed as inhibition of IL6 production in HFF cells by transrepression assay relative to dexamethasone. Type of experiment: functional, Homo sapiens.
The test system of experiment [3] is HFF. Kind of experiment: Antiinflammatory activity assessed as upregulation of aromatase in HFF cells by transactivation assay. Type of experiment: functional, cell-based. As to conditions: Homo sapiens.
Experiment [4] has as its system HFF. Description: Antiinflammatory activity assessed as upregulation of aromatase in HFF cells by transactivation assay relative to dexamethasone. On the set-up: concentration or dose not given beside the values. Format: functional, Homo sapiens.
A further experiment concerns the target T1, Glucocorticoid receptor (Homo sapiens, UniProt P04150).
T1 sequence (P04150 whole entry): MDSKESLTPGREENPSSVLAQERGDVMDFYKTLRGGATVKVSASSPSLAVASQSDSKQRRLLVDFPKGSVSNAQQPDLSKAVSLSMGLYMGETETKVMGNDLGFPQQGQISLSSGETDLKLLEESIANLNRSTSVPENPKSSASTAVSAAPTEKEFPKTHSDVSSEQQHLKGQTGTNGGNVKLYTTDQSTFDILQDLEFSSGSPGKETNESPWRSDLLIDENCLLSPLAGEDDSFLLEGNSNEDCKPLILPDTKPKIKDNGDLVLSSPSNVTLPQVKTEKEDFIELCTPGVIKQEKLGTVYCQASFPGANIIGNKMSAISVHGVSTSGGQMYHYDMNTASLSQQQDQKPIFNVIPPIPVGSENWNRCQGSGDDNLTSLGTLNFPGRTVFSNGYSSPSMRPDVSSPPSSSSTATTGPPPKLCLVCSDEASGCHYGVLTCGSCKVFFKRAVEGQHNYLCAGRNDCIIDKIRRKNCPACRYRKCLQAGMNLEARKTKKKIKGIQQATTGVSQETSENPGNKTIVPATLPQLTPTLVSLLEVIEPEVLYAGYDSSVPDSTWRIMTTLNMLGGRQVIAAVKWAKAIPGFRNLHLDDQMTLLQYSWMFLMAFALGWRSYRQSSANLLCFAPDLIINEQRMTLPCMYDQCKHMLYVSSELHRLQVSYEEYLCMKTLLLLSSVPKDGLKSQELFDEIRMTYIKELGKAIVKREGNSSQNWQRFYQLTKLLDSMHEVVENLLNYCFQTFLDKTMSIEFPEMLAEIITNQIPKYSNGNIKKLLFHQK

The target of another experiment is T2, Progesterone receptor (Homo sapiens, UniProt P06401).
T2 sequence (P06401 whole entry): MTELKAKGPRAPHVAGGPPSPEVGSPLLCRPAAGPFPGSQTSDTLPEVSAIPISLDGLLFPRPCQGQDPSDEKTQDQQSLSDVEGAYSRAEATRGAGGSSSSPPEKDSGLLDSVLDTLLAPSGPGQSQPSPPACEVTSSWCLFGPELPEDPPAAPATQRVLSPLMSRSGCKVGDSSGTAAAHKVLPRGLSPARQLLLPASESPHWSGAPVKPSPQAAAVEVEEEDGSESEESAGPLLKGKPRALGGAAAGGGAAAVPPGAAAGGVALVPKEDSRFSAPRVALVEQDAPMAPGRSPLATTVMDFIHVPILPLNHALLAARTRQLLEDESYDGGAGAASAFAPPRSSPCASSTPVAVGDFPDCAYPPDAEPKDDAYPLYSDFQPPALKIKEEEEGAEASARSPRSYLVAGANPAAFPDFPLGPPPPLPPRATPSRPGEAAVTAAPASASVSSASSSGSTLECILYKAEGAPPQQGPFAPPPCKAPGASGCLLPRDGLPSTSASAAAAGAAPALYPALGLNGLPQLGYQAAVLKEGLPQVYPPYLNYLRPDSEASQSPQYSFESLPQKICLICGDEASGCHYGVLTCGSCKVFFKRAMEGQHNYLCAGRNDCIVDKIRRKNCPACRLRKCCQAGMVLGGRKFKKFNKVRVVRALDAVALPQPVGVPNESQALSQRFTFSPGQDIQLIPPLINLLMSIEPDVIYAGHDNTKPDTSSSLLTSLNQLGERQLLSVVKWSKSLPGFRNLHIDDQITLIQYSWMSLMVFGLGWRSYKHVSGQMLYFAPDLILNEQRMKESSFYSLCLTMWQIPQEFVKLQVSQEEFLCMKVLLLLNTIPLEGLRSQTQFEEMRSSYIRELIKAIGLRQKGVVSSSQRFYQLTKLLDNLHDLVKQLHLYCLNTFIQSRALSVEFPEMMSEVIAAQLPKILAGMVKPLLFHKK
Description: Displacement of TAMRA labeled mifepristone at human progesterone receptor in insect cell.

Experiment [5] addresses T3, Mineralocorticoid receptor (Homo sapiens, UniProt P08235).
T3 sequence (P08235 whole entry): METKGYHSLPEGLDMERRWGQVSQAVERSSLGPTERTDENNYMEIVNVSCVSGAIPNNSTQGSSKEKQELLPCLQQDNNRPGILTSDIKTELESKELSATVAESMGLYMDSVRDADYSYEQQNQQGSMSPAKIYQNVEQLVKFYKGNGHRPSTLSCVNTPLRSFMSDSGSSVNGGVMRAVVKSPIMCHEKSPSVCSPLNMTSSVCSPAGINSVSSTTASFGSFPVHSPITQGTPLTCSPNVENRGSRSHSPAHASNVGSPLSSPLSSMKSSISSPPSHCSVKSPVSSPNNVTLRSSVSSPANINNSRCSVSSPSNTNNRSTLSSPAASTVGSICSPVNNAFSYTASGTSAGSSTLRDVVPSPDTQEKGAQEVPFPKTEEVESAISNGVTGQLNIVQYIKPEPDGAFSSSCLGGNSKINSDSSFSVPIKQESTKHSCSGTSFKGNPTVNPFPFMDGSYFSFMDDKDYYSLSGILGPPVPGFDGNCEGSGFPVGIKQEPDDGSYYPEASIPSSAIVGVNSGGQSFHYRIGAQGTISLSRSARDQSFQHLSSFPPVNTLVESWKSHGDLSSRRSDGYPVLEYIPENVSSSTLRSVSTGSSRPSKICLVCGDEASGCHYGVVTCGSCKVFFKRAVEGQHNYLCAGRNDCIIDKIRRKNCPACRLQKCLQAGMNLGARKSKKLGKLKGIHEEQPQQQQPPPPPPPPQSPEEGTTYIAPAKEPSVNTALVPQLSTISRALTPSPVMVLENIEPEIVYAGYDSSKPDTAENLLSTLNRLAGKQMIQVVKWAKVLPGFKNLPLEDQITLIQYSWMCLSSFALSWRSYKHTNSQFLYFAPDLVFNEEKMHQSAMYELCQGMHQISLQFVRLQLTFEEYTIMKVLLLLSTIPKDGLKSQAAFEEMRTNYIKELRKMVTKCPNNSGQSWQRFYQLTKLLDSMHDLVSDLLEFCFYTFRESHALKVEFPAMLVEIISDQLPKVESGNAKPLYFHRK
Description: Displacement of TAMRA labeled dexamethasone at human mineralocorticoid receptor in insect cell.

The species named for the next experiment is Homo sapiens. Description: Selectivity ratio of human GR over human PR.

Where only a bound is given, the exact number is not on record here.

Broadly, the EC50 is the concentration needed to bring the measured effect to its halfway point. For orientation: IC50 means the midpoint of a concentration-inhibition curve. As to `COc1ccc(F)cc1C(C)(C)CC(O)(Cc1cc(C)cc(C)c1)C(F)(F)F` (stereo not drawn), the figures for the concentration for a half-maximal effect (EC50) in the experiment with HFF [1] and in the experiment with HFF [3] were 0.28 µM and 0.285 µM, respectively. Besides, the Efficacy in the experiment with HFF [2] worked out at 55%. The Activity with HFF [4] turned out to be 80%. The concentration for half-maximal inhibition (IC50) at Glucocorticoid receptor is 0.055 µM; on Progesterone receptor, greater than 0.354 µM; in experiment [5] it was 0.22 µM.
In the case of `COc1ccc(F)cc1C(C)(C)CC(O)(Cc1ccc(C#N)cc1F)C(F)(F)F` (stereo not drawn), the EC50 in the experiment with HFF [1] was greater than 2 µM; with HFF [3], 0.66 µM. In the experiment on HFF [2], the Efficacy was found to be 40%. The Activity with HFF [4] is given as 15%. In addition, the IC50 on Glucocorticoid receptor turned out to be 0.022 µM; at Progesterone receptor, 0.28 µM; in experiment [5], 0.5 µM.
For the molecule `COc1ccc(F)cc1C(C)(C)CC(O)(Cc1cc(C)cc(Cl)c1)C(F)(F)F` (stereo not drawn), the figures for the EC50 with HFF [1] and in the experiment with HFF [3] were 0.125 µM and 0.245 µM, respectively. In addition, the Efficacy with HFF [2] came to 79%. For the same molecule, the Activity in the experiment on HFF [4] is 80%. The concentration for half-maximal inhibition (IC50) against Glucocorticoid receptor is 0.046 µM; on Progesterone receptor it was greater than 2 µM; in experiment [5], 0.94 µM.
`COc1ccc(F)cc1C(C)(C)CC(O)(Cc1ccc(C#N)c2ccccc12)C(F)(F)F` (stereo not drawn): the EC50 was determined as 0.07 µM in the experiment with HFF [1] and 0.26 µM with HFF [3]. Moreover, in the experiment on HFF [2], the Efficacy is reported as 92%. In addition, in the experiment on HFF [4], the Activity was found to be 103%. In addition, the half-inhibitory concentration (IC50) stood at 0.021 µM against Glucocorticoid receptor, 0.325 µM on Progesterone receptor and 0.43 µM in experiment [5].
As to `COc1ccc(F)cc1C(C)(C)CC(O)(Cc1cc(C)cc(C)c1C#N)C(F)(F)F` (stereo not drawn), the EC50 amounted to 0.04 µM in the experiment on HFF [1] and 0.25 µM in the experiment on HFF [3]. Also, the Efficacy in the experiment on HFF [2] came to 83%. Besides, the Activity in the experiment with HFF [4] was 75%. Besides, the Ratio IC50 in the experiment filed under Homo sapiens came out at 225. For the same molecule, the concentration for half-maximal inhibition (IC50) was found to be 0.008 µM on Glucocorticoid receptor, 1.8 µM on Progesterone receptor and 0.25 µM in experiment [5].
Regarding `COc1ccc(F)cc1C(C)(C)CC(O)(Cc1cc(Cl)cc(C#N)c1)C(F)(F)F` (stereo not drawn), the EC50 with HFF [1] is greater than 2 µM; in the experiment on HFF [3], 4.75 µM. For the same molecule, the Efficacy in the experiment with HFF [2] worked out at 46%. In the experiment with HFF [4], the Activity is 53%. For the same molecule, the concentration for half-maximal inhibition (IC50) was 0.027 µM against Glucocorticoid receptor, greater than 2 µM on Progesterone receptor and 0.73 µM in experiment [5].
Regarding `COc1ccc(F)cc1C(C)(C)CC(O)(Cc1ccc(C#N)cc1Cl)C(F)(F)F` (stereo not drawn), the EC50 was 0.02 µM in the experiment on HFF [1] and 0.03 µM in the experiment on HFF [3]. Also, the Efficacy in the experiment with HFF [2] was determined as 60%. In the experiment on HFF [4], the Activity amounted to 20%. In addition, the IC50 at Glucocorticoid receptor is 0.017 µM; on Progesterone receptor, 0.14 µM; in experiment [5], 0.32 µM.
Regarding `COc1ccc(F)cc1C(C)(C)CC(O)(Cc1cc(C)c(C#N)c(C)c1)C(F)(F)F` (stereo not drawn), the EC50 with HFF [1] came out at 0.004 µM; with HFF [3], 0.008 µM. Moreover, in the experiment on HFF [2], the Efficacy turned out to be 95%. The Activity in the experiment with HFF [4] is reported as 115%. Also, the Ratio IC50 in the experiment listed under Homo sapiens stood at 35. Also, the results for the 50% inhibitory concentration (IC50) (against Glucocorticoid receptor; on Progesterone receptor; in experiment [5]) were 0.011 µM, 0.39 µM and 0.3 µM, respectively.

(Values after ChEMBL document CHEMBL1149697, “Identification of dissociated non-steroidal glucocorticoid receptor agonists” (Bioorg Med Chem Lett, 2007).)
